Results reported in PubChem BioAssay (NCI).
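Tested at 5 concentrations; 48 h exposure; 96-well plates; endpoints linearly interpolated, else capped at highest concentration. The concentration for 50% growth inhibition is given as GI50. TGI: concentration producing complete growth inhibition.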

The molecules below were run on HOP-92 NSCLC (assay: inhibition of tumour cell growth, NCI panel, 48 h).

Row | Compound | GI50 [µM] | TGI [µM]
1 | CC[C@H](C)[C@H](NC(=O)[C@H]1CCCCN1C)C(=O)N(C)[C@H](CCc1nc(C(=O)N[C@@H](Cc2ccccc2)C[C@H](C)C(=O)OC)cs1)C(C)C | 0.292 | 8.33
2 | NC(N)=NC(N)=Nc1cc2ccccc2c2ccccc12 | 1.31 | 11
3 | COc1ccc2cc(C(=O)/C=C/c3cccc(OC)c3OC)ccc2c1 | 36.2 | > 100
4 | CCCCn1c(-c2ccc(C(=O)O/N=C(\N)c3ccc(OC)cc3)cc2)nc(-c2ccccc2)c1-c1ccccc1 | 0.816 | 2.41
5 | CCCCC/C=C/C/C=C/CCCCCCCC1=NC(C)(C)CN1C(C)C | 1.31 | 3.37

The molecules below were run on UACC-62 melanoma (assay: inhibition of tumour cell growth, NCI panel, 48 h).

Row | Compound | GI50 [µM] | TGI [µM]
6 | CC(C)(C)OC(=O)N(CCCN(CCn1c2c(c3ccccc3c1=O)C(=O)c1ccccc1-2)C(=O)OC(C)(C)C)CCn1c2c(c3ccccc3c1=O)C(=O)c1ccccc1-2 | > 50 | > 50
7 | CC[C@H](C)[C@H](NC(=O)[C@H]1CCCCN1C)C(=O)N(C)[C@H](CCc1nc(C(=O)N[C@@H](Cc2ccccc2)C[C@H](C)C(=O)OC)cs1)C(C)C | 0.0986 | > 25
8 | O=C(C[C@@H](C(=O)NCc1cccc(C(F)(F)F)c1)N1C(=O)[C@@H](N2C(=O)OC[C@@H]2c2ccccc2)[C@H]1/C=C/c1ccccc1)NC1CCN(Cc2ccccc2)CC1 | 3.34 | 13.8
9 | COc1cc([N+](=O)[O-])ccc1NC(=O)C(F)(F)F | – | > 100
10 | COc1cc(-c2c(C#N)c(N)n3c(nc4ccccc43)c2C#N)cc(Br)c1OC | 28.3 | > 100
11 | O=C(O)c1cc(N=Nc2ccc([As](=O)(O)O)cc2)ccc1O | – | > 100
12 | Cn1cc(C2=C(c3cn(CCCN=C(N)N)c4ccccc34)C(=O)NC2=O)c2ccccc21 | > 25 | > 25
13 | NC(N)=NC(N)=Nc1cc2ccccc2c2ccccc12 | 12.1 | 25.8
14 | COc1ccc2cc(C(=O)/C=C/c3cccc(OC)c3OC)ccc2c1 | 2.77 | 11
15 | CCCCn1c(-c2ccc(C(=O)O/N=C(\N)c3ccc(OC)cc3)cc2)nc(-c2ccccc2)c1-c1ccccc1 | 1.88 | 4.58
16 | CCCCC/C=C/C/C=C/CCCCCCCC1=NC(C)(C)CN1C(C)C | 1.69 | 3.12

The molecules below were run on LOX IMVI melanoma (assay: inhibition of tumour cell growth, NCI panel, 48 h).

Row | Compound | GI50 [µM] | TGI [µM]
17 | CC(C)(C)OC(=O)N(CCCN(CCn1c2c(c3ccccc3c1=O)C(=O)c1ccccc1-2)C(=O)OC(C)(C)C)CCn1c2c(c3ccccc3c1=O)C(=O)c1ccccc1-2 | > 50 | > 50
18 | CC[C@H](C)[C@H](NC(=O)[C@H]1CCCCN1C)C(=O)N(C)[C@H](CCc1nc(C(=O)N[C@@H](Cc2ccccc2)C[C@H](C)C(=O)OC)cs1)C(C)C | 0.353 | > 25
19 | O=C(C[C@@H](C(=O)NCc1cccc(C(F)(F)F)c1)N1C(=O)[C@@H](N2C(=O)OC[C@@H]2c2ccccc2)[C@H]1/C=C/c1ccccc1)NC1CCN(Cc2ccccc2)CC1 | 4.03 | 18.9
20 | COc1cc([N+](=O)[O-])ccc1NC(=O)C(F)(F)F | – | > 100
21 | COc1cc(-c2c(C#N)c(N)n3c(nc4ccccc43)c2C#N)cc(Br)c1OC | > 100 | > 100
22 | O=C(O)c1cc(N=Nc2ccc([As](=O)(O)O)cc2)ccc1O | – | > 100
23 | Cn1cc(C2=C(c3cn(CCCN=C(N)N)c4ccccc34)C(=O)NC2=O)c2ccccc21 | > 25 | > 25
24 | NC(N)=NC(N)=Nc1cc2ccccc2c2ccccc12 | 5.15 | 22
25 | C[C@]12CC[C@@H]3c4ccc(Oc5nc(N6CC6)nc(N6CC6)n5)cc4CC[C@H]3[C@@H]1CCC2=O | 1.37 | 3.1
26 | CCCCn1c(-c2ccc(C(=O)O/N=C(\N)c3ccc(OC)cc3)cc2)nc(-c2ccccc2)c1-c1ccccc1 | 0.181 | 0.342

What follows are molecules tested on MDA-MB-435 (assay: inhibition of tumour cell growth, NCI panel, 48 h).

Row | Compound | GI50 [µM] | TGI [µM]
27 | CC(C)(C)OC(=O)N(CCCN(CCn1c2c(c3ccccc3c1=O)C(=O)c1ccccc1-2)C(=O)OC(C)(C)C)CCn1c2c(c3ccccc3c1=O)C(=O)c1ccccc1-2 | > 50 | > 50
28 | CC[C@H](C)[C@H](NC(=O)[C@H]1CCCCN1C)C(=O)N(C)[C@H](CCc1nc(C(=O)N[C@@H](Cc2ccccc2)C[C@H](C)C(=O)OC)cs1)C(C)C | 0.0363 | 0.185
29 | O=C(C[C@@H](C(=O)NCc1cccc(C(F)(F)F)c1)N1C(=O)[C@@H](N2C(=O)OC[C@@H]2c2ccccc2)[C@H]1/C=C/c1ccccc1)NC1CCN(Cc2ccccc2)CC1 | 2.45 | 7.66
30 | COc1cc([N+](=O)[O-])ccc1NC(=O)C(F)(F)F | – | > 100
31 | COc1cc(-c2c(C#N)c(N)n3c(nc4ccccc43)c2C#N)cc(Br)c1OC | > 100 | > 100
32 | O=C(O)c1cc(N=Nc2ccc([As](=O)(O)O)cc2)ccc1O | – | > 100
33 | Cn1cc(C2=C(c3cn(CCCN=C(N)N)c4ccccc34)C(=O)NC2=O)c2ccccc21 | > 25 | > 25
34 | NC(N)=NC(N)=Nc1cc2ccccc2c2ccccc12 | 12.4 | 25.4
35 | C[C@]12CC[C@@H]3c4ccc(Oc5nc(N6CC6)nc(N6CC6)n5)cc4CC[C@H]3[C@@H]1CCC2=O | 5.43 | 22
36 | COc1ccc2cc(C(=O)/C=C/c3cccc(OC)c3OC)ccc2c1 | 5.16 | 29.7
37 | CCCCn1c(-c2ccc(C(=O)O/N=C(\N)c3ccc(OC)cc3)cc2)nc(-c2ccccc2)c1-c1ccccc1 | 1.74 | 3.28
38 | CCCCC/C=C/C/C=C/CCCCCCCC1=NC(C)(C)CN1C(C)C | 1.5 | 2.82

Each molecule was assayed on CAKI-1 renal (assay: inhibition of tumour cell growth, NCI panel, 48 h).

Row | Compound | GI50 [µM] | TGI [µM]
39 | CC(C)(C)OC(=O)N(CCCN(CCn1c2c(c3ccccc3c1=O)C(=O)c1ccccc1-2)C(=O)OC(C)(C)C)CCn1c2c(c3ccccc3c1=O)C(=O)c1ccccc1-2 | > 50 | > 50
40 | O=C(C[C@@H](C(=O)NCc1cccc(C(F)(F)F)c1)N1C(=O)[C@@H](N2C(=O)OC[C@@H]2c2ccccc2)[C@H]1/C=C/c1ccccc1)NC1CCN(Cc2ccccc2)CC1 | 14 | 34.4
41 | COc1cc([N+](=O)[O-])ccc1NC(=O)C(F)(F)F | – | > 100
42 | O=C(O)c1cc(N=Nc2ccc([As](=O)(O)O)cc2)ccc1O | – | > 100
43 | Cn1cc(C2=C(c3cn(CCCN=C(N)N)c4ccccc34)C(=O)NC2=O)c2ccccc21 | > 25 | > 25
44 | C[C@]12CC[C@@H]3c4ccc(Oc5nc(N6CC6)nc(N6CC6)n5)cc4CC[C@H]3[C@@H]1CCC2=O | 0.641 | 43.7
45 | COc1ccc2cc(C(=O)/C=C/c3cccc(OC)c3OC)ccc2c1 | 11.6 | 31.9
46 | CCCCn1c(-c2ccc(C(=O)O/N=C(\N)c3ccc(OC)cc3)cc2)nc(-c2ccccc2)c1-c1ccccc1 | 1.29 | 2.71
47 | CCCCC/C=C/C/C=C/CCCCCCCC1=NC(C)(C)CN1C(C)C | 1.3 | 2.57

Each molecule was assayed on SK-MEL-5 melanoma (assay: inhibition of tumour cell growth, NCI panel, 48 h).

Row | Compound | GI50 [µM] | TGI [µM]
48 | CC(C)(C)OC(=O)N(CCCN(CCn1c2c(c3ccccc3c1=O)C(=O)c1ccccc1-2)C(=O)OC(C)(C)C)CCn1c2c(c3ccccc3c1=O)C(=O)c1ccccc1-2 | > 50 | > 50
